Laboratory results taken from paper PMC10746543, “Design principles for cyclin K molecular glue degraders” (Nature Chemical Biology, 2023).
Where “and” joins values, the source holds several entries; their conditions need not be identical. Equal entries are not always repeated. Where two headings read alike, the source gives them in different places.

Tests used:
[1] = molecular target: T1, CDK12–cyclin K and DDB1 (Homo sapiens, UniProt Q16531+Q9NYV4, K965R); test: TR-FRET ternary complex formation assay (compound titration); type: binding; conditions: for TR-FRET signal at compound concentration: replicate titrations
T1 construct: His6–CDK12 (a.a. 713–1,052); full-length or beta-propeller B domain deletion (ΔBPB: a.a. 396–705 deleted) constructs of His6–DDB1ΔBPB, StrepII–Avi–DDB1, or His6–Spy–DDB1; made in house; host or cells: Trichoplusia ni High Five insect cells (baculovirus)
T1 sequence (Q9NYV4 713-1052 K965R): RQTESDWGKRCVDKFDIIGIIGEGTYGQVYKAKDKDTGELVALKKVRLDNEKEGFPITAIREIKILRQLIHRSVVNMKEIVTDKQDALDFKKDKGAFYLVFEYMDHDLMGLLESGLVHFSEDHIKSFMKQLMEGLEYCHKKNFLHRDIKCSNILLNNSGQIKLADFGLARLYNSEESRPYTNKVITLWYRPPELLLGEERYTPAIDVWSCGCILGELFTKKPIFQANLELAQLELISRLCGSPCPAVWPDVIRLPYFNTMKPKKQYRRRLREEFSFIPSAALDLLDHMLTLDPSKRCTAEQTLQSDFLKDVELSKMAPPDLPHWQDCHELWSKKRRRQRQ
T1 sequence (O75909 1-267 partner): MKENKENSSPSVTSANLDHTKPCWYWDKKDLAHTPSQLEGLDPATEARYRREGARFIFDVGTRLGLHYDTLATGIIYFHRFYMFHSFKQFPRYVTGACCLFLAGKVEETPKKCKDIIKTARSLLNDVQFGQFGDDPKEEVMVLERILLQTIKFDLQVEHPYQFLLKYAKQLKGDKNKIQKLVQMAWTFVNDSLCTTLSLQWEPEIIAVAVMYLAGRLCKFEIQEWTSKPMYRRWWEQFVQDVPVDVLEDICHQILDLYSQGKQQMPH
T1 sequence (Q16531 whole entry): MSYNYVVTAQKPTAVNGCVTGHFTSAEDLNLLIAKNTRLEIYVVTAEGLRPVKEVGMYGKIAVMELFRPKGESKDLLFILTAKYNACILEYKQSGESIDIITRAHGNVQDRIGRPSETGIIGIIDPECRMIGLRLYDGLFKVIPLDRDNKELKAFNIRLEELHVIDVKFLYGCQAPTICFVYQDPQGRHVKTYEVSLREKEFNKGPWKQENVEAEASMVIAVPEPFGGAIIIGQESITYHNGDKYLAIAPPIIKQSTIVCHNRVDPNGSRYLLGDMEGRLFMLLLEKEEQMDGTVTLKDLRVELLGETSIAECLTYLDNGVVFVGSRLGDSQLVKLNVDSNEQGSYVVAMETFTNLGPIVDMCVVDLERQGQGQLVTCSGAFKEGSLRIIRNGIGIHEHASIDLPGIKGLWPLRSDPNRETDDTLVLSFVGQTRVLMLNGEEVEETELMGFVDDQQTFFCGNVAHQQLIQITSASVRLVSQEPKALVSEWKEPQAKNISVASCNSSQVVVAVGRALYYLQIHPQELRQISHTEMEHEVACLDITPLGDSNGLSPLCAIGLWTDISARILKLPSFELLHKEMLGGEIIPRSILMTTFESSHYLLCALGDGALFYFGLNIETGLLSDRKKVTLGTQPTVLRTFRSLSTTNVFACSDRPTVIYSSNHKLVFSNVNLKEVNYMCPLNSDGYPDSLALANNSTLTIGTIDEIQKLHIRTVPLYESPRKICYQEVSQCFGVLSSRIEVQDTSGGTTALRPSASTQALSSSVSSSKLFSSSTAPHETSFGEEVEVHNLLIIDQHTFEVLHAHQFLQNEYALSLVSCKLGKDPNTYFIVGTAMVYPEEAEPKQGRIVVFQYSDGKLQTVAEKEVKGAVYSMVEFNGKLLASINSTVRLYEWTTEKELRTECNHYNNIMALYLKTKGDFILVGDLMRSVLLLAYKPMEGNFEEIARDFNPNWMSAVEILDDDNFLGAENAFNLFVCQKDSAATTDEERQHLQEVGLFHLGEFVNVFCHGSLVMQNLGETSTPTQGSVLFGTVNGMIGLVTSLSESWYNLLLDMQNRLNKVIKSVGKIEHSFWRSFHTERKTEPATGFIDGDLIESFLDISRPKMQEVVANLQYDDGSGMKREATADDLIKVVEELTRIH
Procedure, shortened: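 Signal was the ratio of 520 nm to 490 nm fluorescence, measured after a 70 μs delay that reduced background.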

[2] = test system: cyclin K–eGFP degradation reporter; test: Cyclin K reporter stability analysis (dual-color cyclin K–eGFP reporter); type: cell-based, human; conditions: Supplementary Table 2; HEK293T cycK-eGFP reporter, 5 h; read-out: Cellular assays DC50
Procedure, shortened: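 Readout was the eGFP-to-mCherry geometric-mean ratio by flow cytometry, normalized to three DMSO controls, after 5 h drug exposure. Cells used were HEK293T–Cas9 expressing the dual-colour cyclin K–eGFP degradation reporter.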

[3] = test system: HEK293T cells; test: Drug sensitivity assay (CellTiter-Glo viability) with or without MLN4924 pretreatment; type: cell-based, human; conditions: Supplementary Table 2; for EC50: Homo sapiens, HEK-293T, HEK293T viability, 72 h, compound alone, read-out: Cellular assays EC50; for Toxicity rescue: MLN4924-mediated cytotoxicity rescue, 10 µM used where n.d.
Procedure, shortened: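 HEK293T–Cas9, 0.15 × 10^6 ml^−1; pretreat DMSO vs 100 nM MLN4924; drugs dispensed after 2 h; 3 d exposure; CellTiter-Glo; viability vs DMSO control.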

[4] = compound concentration 79.2001 nM
[5] = compound concentration 158.4 nM
[6] = compound concentration 309.6 nM
[7] = compound concentration 626.401 nM
[8] = compound concentration 1252.8 nM
[9] = compound concentration 9936.01 nM
[10] = compound concentration 20016 nM
[11] = in vitro complex formation, 50 nM CDK12–cyclin K, 100 nM DDB1, text and figures, read-out: TR-FRET EC50

| TR-FRET signal ([1]; compound concentration 4.68 nM) | TR-FRET signal ([1]; compound concentration 21.6 nM) | TR-FRET signal ([1]; compound concentration 36 nM) | TR-FRET signal [1, 4] | TR-FRET signal [1, 5] | TR-FRET signal [1, 6] | TR-FRET signal [1, 7] | TR-FRET signal [1, 8] | TR-FRET signal ([1]; compound concentration 2448 nM) | TR-FRET signal [1, 9] | TR-FRET signal [1, 10] | EC50 [1, 11] | DC50 [2] | TR-FRET signal, individual replicate ([1]; compound concentration 4.68 nM) | TR-FRET signal, individual replicate ([1]; compound concentration 21.6 nM) | TR-FRET signal, individual replicate ([1]; compound concentration 36 nM) | TR-FRET signal, individual replicate [1, 4] | TR-FRET signal, individual replicate [1, 5] | SMILES | EC50 [3] | Toxicity rescue [3] | further results |
| --- | --- | --- | --- | --- | --- | --- | --- | --- | --- | --- | --- | --- | --- | --- | --- | --- | --- | --- | --- | --- | --- |
| 0.1269 and 0.1552 | 0.1368 and 0.156 | 0.1404 and 0.1564 | 0.1332 and 0.164 | 0.1494 and 0.1683 | 0.1517 and 0.1802 | 0.1772 and 0.1976 | 0.2017 and 0.2255 | 0.2403 and 0.2789 | 0.333 and 0.3875 | 0.3528 and 0.412 | 3.23 ± 0.959 µM | > 10 µM | – | – | – | – | – | CCOCCOCCNc1nc(N[C@H](CC)CO)nc2c1ncn2C(C)C [DS13] | > 10 µM | 0% | – |
| 0.1364 and 0.1548 | 0.1403 and 0.1585 | 0.1464 and 0.1703 | 0.164 and 0.1861 | 0.1899 and 0.214 | 0.2284 and 0.2573 | 0.2863 and 0.3257 | 0.3495 and 0.4048 | 0.4136 and 0.4783 | 0.5447 and 0.6287 | 0.6134 and 0.6953 | 2.36 ± 0.777 µM | > 10 µM | – | – | – | – | – | CC[C@H](CO)Nc1nc(NCc2ccc3cc(O)ccc3c2)c2ncn(C(C)C)c2n1 [DS14] | > 10 µM | 0% | – |
| – | – | – | – | – | – | – | – | – | – | – | 0.182 µM | > 10 µM | 0.1682 and 0.1874 | 0.2977 and 0.3197 | 0.5215 and 0.541 | 0.8673 and 0.9745 | 1.23 and 1.324 | CC[C@H](CO)Nc1nc(NCCCCCc2cccc3ccccc23)c2ncn(C(C)C)c2n1 [DS15] | > 10 µM | 0% | TR-FRET signal at compound concentration ([1]; compound concentration 4.68 nM): 0.1682 and 0.1874; TR-FRET signal at compound concentration ([1]; compound concentration 21.6 nM): 0.2977 and 0.3197; TR-FRET signal at compound concentration ([1]; compound concentration 36 nM): 0.5215 and 0.541; TR-FRET signal at compound concentration [1, 4]: 0.8673 and 0.9745; TR-FRET signal at compound concentration [1, 5]: 1.23 and 1.324; TR-FRET signal, individual replicate [1, 6]: 1.677 and 1.781; TR-FRET signal at compound concentration [1, 6]: 1.677 and 1.781; TR-FRET signal, individual replicate [1, 7]: 2.096 and 2.217; TR-FRET signal at compound concentration [1, 7]: 2.096 and 2.217; TR-FRET signal, individual replicate [1, 8]: 2.231 and 2.525; TR-FRET signal at compound concentration [1, 8]: 2.231 and 2.525; TR-FRET signal, individual replicate ([1]; compound concentration 2448 nM): 2.525 and 2.68; TR-FRET signal at compound concentration ([1]; compound concentration 2448 nM): 2.525 and 2.68; TR-FRET signal, individual replicate [1, 9]: 2.633 and 2.833; TR-FRET signal at compound concentration [1, 9]: 2.633 and 2.833; TR-FRET signal, individual replicate [1, 10]: 2.343 and 2.482; TR-FRET signal at compound concentration [1, 10]: 2.343 and 2.482; EC50 ([1]; sheet MOESM7, read-out: log TR-FRET EC50 (converted)): 0.182 µM |
| – | – | – | – | – | – | – | – | – | – | – | – | > 10 µM | 0.1301 and 0.1411 | 0.1343 and 0.1464 | 0.1332 and 0.1524 | 0.1391 and 0.1534 | 0.1406 and 0.1374 | CC[C@H](CO)Nc1nc(NC)c2ncn(C(C)C)c2n1 [DS23] | > 10 µM | 0% | TR-FRET signal, individual replicate [1, 6]: 0.0615 and 0.162; TR-FRET signal, individual replicate [1, 7]: 0.1683 and 0.1829; TR-FRET signal, individual replicate [1, 8]: 0.1869 and 0.2017; TR-FRET signal, individual replicate ([1]; compound concentration 2448 nM): 0.194 and 0.2082; TR-FRET signal, individual replicate [1, 9]: 0.2263 and 0.2491; TR-FRET signal, individual replicate [1, 10]: 0.2226 and 0.3132; DDB1–CDK12 complex formation, result in words ([1]; in vitro TR-FRET): did not appreciably promote the binding |
